Several values for one entry are separate records, joined by “and”; a condition that tells them apart may be missing. Identical values can stand only once. Like-named read-outs stand apart in the source and are kept apart here.
Columns and labels:
[1] = Oral and iv pharmacokinetics of 3-SPA in male SD rats; assay type: in vivo, Sprague-Dawley rats
Procedure: The oral and iv pharmacokinetics of 3-SPA was evaluated in male Sprague-Dawley fasted rats at a dose of 30 mg/kg and 10 mg/kg respectively (n=3 per groups). Animals were housed in a standard facility, with water and food was provided ad libitum to the experiment. 3-SPA was dissolved in saline, was administered orally by gavage and intravenously as a bolus. Serial blood samples (approximately 1.0 mL each) were collected from each animal at 0.25, 0.5, 1, 2, 4, 8 and 24 hours after dosing into tubes containing K2EDTA and processed for plasma by centrifugation. Plasma samples were stored at −80° C. until bioanalyses.
A separate group of animals was dosed orally at 30 mg/kg and terminal brain, CSF and plasma samples were collected at 1, 2, 6, and 24 hr (3 animals for each time point) for bioanalyses of 3-SPA in brain and CSF, and to estimate brain penetration relative to plasma concentrations. The in-life study was performed at Agilux Laboratories (Worcester, MA) following quality standards in line with Good Laboratory Practice. Bioanalyses of rat plasma, CSF and brain was preformed using LC-MS/MS at Nextcea. Prior to processing rat brains for bioanalysis, the brains were perfused to remove pooled blood. Pharmacokinetic data analyses were conducted using Winnonlin Professional v5.0.1 (Pharsight, Mountain View, CA).
The plasma concentration of a single dose of 3-SPA, dissolved in saline as a clear solution, administered orally and intravenously to rats at a dose level of 30 mg/kg and 10 mg/kg, respectively, are shown in FIG. 9. Brain, CSF and corresponding plasma levels after a single oral dose of dose of 30 mg/kg of 3-SPA at 1, 2, 6, and 24 hr are shown in FIG. 10. Mean PK curves were used for calculation of pharmacokinetic parameters.

[2] = CSF concentrations of 3-SPA at Week 78 in North American Phase 3 tramiprosate trial (LC-MS/MS); assay type: in vivo, human; details: 150 mg BID tramiprosate; for concentration at 78 week: human, CSF, oral, 150 mg BID
Procedure: The samples were withdrawn from the freezer and shipped on dry ice to Nextcea Inc. (Woburn, MA) and stored in a freezer set to maintain−80° C. after receipt. The CSF collection and storage were carried out after subjects signed an informed consent in accordance with the ethical guidelines in the Czech Republic and good clinical practice, and according to the widely recognized consensus protocol for the standardization of CSF collection and biobanking (Viola et al., Amyloid β oligomers in Alzheimer's disease pathogenesis, treatment, and diagnosis. Acta Neuropathol 2015; 129:183-206; and Vanderstichele et al. Standardization of preanalytical aspects of cerebrospinal fluid biomarker testing for Alzheimer's disease diagnosis: A consensus paper from the Alzheimer's Biomarkers Standardization Initiative. Alzheimers Dement 2012; 8(1):65-73). Commercial ELISA kits (Innogenetics NV, Ghent, Belgium) were used for dementia biomarker analyses (Aβ1-42, tau protein, and phospho-tau), and cut off values derived from a validation study were used. CSF concentrations of 3-SPA were also quantified in 12 patients receiving the 150 mg BID dose of tramiprosate at Week 78 of the Phase 3 North American AD trial.
The 3-SPA reference material and human CSF samples were mixed with N-ethyl-N′-(3-dimethylaminopropyl) carbodiimide (EDC) and 2,2,2-trifluro ethylamine (TFEA). The samples were vortexed and reacted at room temperature for 30 minutes. The reactions were centrifuged at 4500 rpm for 5 minutes. The supernatant was transferred to a new plate for analysis. 3-SPA was identified and characterized using LC-MS and LC-MS/MS. Injections were made onto a Thermo Scientific AQUASIL 5 μm, 50×2.1 mm column using a Shimadzu autosampler and UPLC pump. Mobile phase A was 0.1% trifluoroacetic acid in water (v/v). Mobile phase B was 0.1% formic acid in 90/10 acetonitrile/water (v/v). The flow rate was 0.35 mL/min. The total running time per sample was 4 min. An API 6500 triple quadrupole mass spectrometer was used for detection. Data were acquired in negative LC-MS and LC-MS/MS modes. Representative chromatograms of 3-SPA in crude native material and human CSF derivatized with EDC and TFEA are shown in FIG. 7, FIG. 8 Panel A, and FIG. 8 Panel B. LC-MS and LC-MS/MS data were acquired using Analyst software (AB Sciex, Foster City, CA). LOQ for the LC-MS/MS method was 0.1 ng/ml with a dynamic range of 0.1 to 1000 ng/ml (r=0.99688 and % CV 5.8%±2.0; data on file). 3-SPA was identified in human CSF by matching the chromatographic retention time and by co-elution of the LC-MS/MS transition ions to the authentic 3-SPA reference standard (synthesized by Paraza Pharma, Montreal, Canada).
The levels of 3-SPA of in patients with a variety of cognition impairing diseases, including AD, ranged from 4.15 to 27.7 nM (0.64-4.27 ng/ml) (Table 1). When related to the CSF concentrations of Aβ42 monomers in AD patients (0.04 nM to 0.1 nM) (Bakan et al., ProDy: protein dynamics inferred from theory and experiments. Bioinformatics 2011; 27:1575-7; Shaw et al. Cerebrospinal fluid biomarker signature in Alzheimer's disease neuroimaging initiative subjects. Ann Neurol 2009; 65:403-13; Pannee et al. Reference measurement procedure for CSF Abeta1-42 and the CSF Abeta1-42/Abeta1-40 ratio—a crossvalidation study against Amyloid PET. J. Neurochem 2016; and Lambert et al. Diffusible, nonfibrillar ligands derived from A 1-42 are potent central nervous system neurotoxins. PNAS. 1998; 95:6448-53), there is an approximately 40-700 fold excess of 3-SPA over soluble Aβ42 monomers, which falls within the range where partial Aβ anti-oligomer aggregation activity may occur in some patients (Table 3). Furthermore, retrospective analyses of the CSF of a subset of patients from the tramiprosate Phase 3 trial were also evaluated for presence of 3-SPA, the primary metabolite of tramiprosate. […]

Tmax ([1]; Sprague-Dawley, rat, iv 10 mg/kg, plasma, read-out: Tmax): 4.8 min
Cl_obs ([1]; iv 10 mg/kg): 45 mL/min/kg
Vss_obs ([1]; iv 10 mg/kg): 12.9 L/kg
Vz_obs ([1]; iv 10 mg/kg): 43.6 L/kg
AUC 0-inf_obs ([1]; iv 10 mg/kg, plasma): 3638 ng·h/mL
AUC 0-t ([1]; iv 10 mg/kg, plasma): 3407 ng·h/mL
C0 ([1]; iv 10 mg/kg, plasma): 13599 ng/mL
Cmax ([1]; iv 10 mg/kg, plasma): 7484 ng/mL
t½ ([1]; iv 10 mg/kg, plasma): 659.4 min
Oral Bioavailability ([1]; oral 30 mg/kg vs iv 10 mg/kg): ~100%
AUC 0-inf_obs ([1]; oral 30 mg/kg, plasma): 19061 ng·h/mL
AUC 0-t ([1]; oral 30 mg/kg, plasma): 18894 ng·h/mL
Cmax ([1]; oral 30 mg/kg, plasma): 8943 ng/mL
Lambda_z ([1]; oral 30 mg/kg, plasma): 0.16 h⁻¹
Tmax ([1]; oral 30 mg/kg, plasma): 30 min
t½ ([1]; oral 30 mg/kg, plasma): 264 min
CSF concentration of 3-SPA, Median ([2]; Week 78): 19.3 ng/ml and 127.5 nM
CSF concentration of 3-SPA, Minimum-maximum ([2]; Week 78): 17.3-35.7 ng/ml and 114.3-235.8 nM
increase of mean CSF 3-SPA over levels observed in drug naïve patients ([2]; Week 78): 12.6 fold
CSF concentration of 3-SPA, Mean ± SD ([2]; Week 78, n=6): 22.3 ± 7.9 ng/ml and 147 ± 51.3 nM
concentration at 78 week ([2]; Week 78, n=6, read-out: CSF concentration of 3-SPA, Mean ± SD): 147 nM
concentration at 78 week ([2]; Week 78, read-out: CSF concentration of 3-SPA, Minimum-maximum): 114 to 236 nM
Compound: O=C(O)CCS(=O)(=O)O [3-SPA, 3-sulfopropanoic acid]

Reference: patent US12083082B2, “Methods for treating neurodegenerative disorders” (Alzheon, Inc., priority 2018, dated 2024)
